How the values were obtained:
[1] = target: T1, Alpha-glucosidase (Saccharomyces cerevisiae S288c, UniProt P53341+P38158+P07265); test: Inhibition of Saccharomyces cerevisiae alpha-glucosidase using p-nitrophenyl-alpha-D-glucopyranoside as substrate preincubated for 10 mins followed by substrate addition and measured after 20 mins by absorbance based microplate reader analysis; type: protein assay
[2] = target: T1, Alpha-glucosidase; test: Non-competitive inhibition of Saccharomyces cerevisiae alpha-glucosidase using p-nitrophenyl glucopyranoside as substrate assessed as inhibition constant preincubated for 15 mins followed by substrate addition and measured after 20 mins by spectrophotometric analysis; type: protein assay
[3] = target: T1, Alpha-glucosidase; test: Inhibition of Saccharomyces cerevisiae alpha-glucosidase using p-nitrophenyl glucopyranoside as substrate preincubated for 10 mins followed by substrate addition and measured after 20 mins by spectrophotometric analysis; type: protein assay
[4] = target: T1, Alpha-glucosidase; test: Un-competitive inhibition of Saccharomyces cerevisiae alpha-glucosidase using p-nitrophenyl glucopyranoside as substrate assessed as inhibition constant preincubated for 15 mins followed by substrate addition and measured after 20 mins by spectrophotometric analysis; type: protein assay
[5] = target: T1, Alpha-glucosidase; test: Inhibition of Saccharomyces cerevisiae alpha-glucosidase using p-nitrophenyl-alpha-D-glucopyranoside as substrate incubated for 15 mins by UV-visible spectrophotometric analysis; type: protein assay
[6] = Competitive inhibition of alpha-glucosidase (unknown origin) assessed as inhibition constant; design: species or system Homo sapiens
[7] = Inhibition of alpha-glucosidase (unknown origin); design: species or system Homo sapiens
[8] = target: T1, Alpha-glucosidase; test: Inhibition of Saccharomyces cerevisiae alpha-glucosidase using p-nitrophenyl-alpha-D-glucopyranoside as substrate preincubated for 15 mins followed by substrate addition and measured after 30 mins by multiplate reader analysis; type: protein assay
[9] = target: T1, Alpha-glucosidase; test: Non-competitive inhibition of Saccharomyces cerevisiae alpha-glucosidase using p-nitrophenyl-alpha-D-glucopyranoside as substrate assessed as inhibition constant preincubated for 15 mins followed by substrate addition and measured after 30 mins by multiplate reader analysis; type: protein assay
[10] = Inhibition of alpha-glucosidase (unknown origin) using PNP glycoside as substrate preincubated for 30 mins followed by substrate addition and measured after 1 min by spectrophotometric analysis; design: species or system Homo sapiens
[11] = target: T1, Alpha-glucosidase; test: Inhibition of Saccharomyces cerevisiae alpha-glucosidase using p-nitrophenyl-alpha-D-glucopyranoside as substrate preincubated for 10 mins followed by substrate addition and measured after 20 mins by absorbance based analysis; type: protein assay
[12] = target: T1, Alpha-glucosidase; test: Competitive inhibition of Saccharomyces cerevisiae alpha-glucosidase using p-nitrophenyl-alpha-D-glucopyranoside as substrate assessed as inhibition constant preincubated for 10 mins followed by substrate addition and measured after 20 mins by absorbance based analysis; type: protein assay
[13] = Inhibition of alpha-glucosidase (unknown origin) using p-NPG as substrate assessed as inhibition constant preincubated with compound followed by substrate addition and measured by absorbance based analysis; design: species or system Homo sapiens
[14] = Inhibition of rat intestinal alpha-glucosidase assessed as inhibition constant
[15] = Inhibition of rat intestinal alpha-glucosidase
[16] = test system: Saccharomyces cerevisiae; test: Potency index, ratio of acarbose IC50 to test compound IC50 for inhibition of Saccharomyces cerevisiae alpha-glucosidase type I using p-nitrophenyl-alpha-D-glucopyranoside as substrate preincubated for 10 mins followed by substrate addition and measured after 30 mins by absorbance based analysis; conditions: time 40.0 min
[17] = Inhibition of Saccharomyces cerevisiae alpha-glucosidase type I using p-nitrophenyl-alpha-D-glucopyranoside as substrate preincubated for 10 mins followed by substrate addition and measured after 30 mins by absorbance based analysis
[18] = (§1) Mixed-type inhibition of alpha-glucosidase (unknown origin) using p-nitropheny-alpha-D-glucopyranoside as substrate assessed as inhibition constant by measuring intercept versus drug/substrate concentration preincubated for 5 mins followed by substrate addition and measured after 10 mins by absorbance based microplate reader analysis; design: species or system Homo sapiens
[19] = as §1, with “secondary plot of 1/V” for “intercept”, “drug” for “drug/substrate”; design: species or system Homo sapiens
[20] = Inhibition of alpha-glucosidase (unknown origin) using p-nitrophenyl-alpha-D-glucopyranoside as substrate preincubated for 5 mins followed by substrate addition and measured after 10 mins by absorbance based microplate reader analysis; design: species or system Homo sapiens
[21] = species: Rattus norvegicus; test: Anti-hyperglycemic activity against STZ-induced hyperglycemic rat model assessed as reduction in blood glucose level relative to control; type: functional; design: scale not given: the % may be the effect or the level left
[22] = target: T1, Alpha-glucosidase; test: Inhibition of Saccharomyces cerevisiae alpha-glucosidase using p-nitrophenyl-alpha-D-glucopyranoside as substrate preincubated with compound followed by substrate addition and measured after 30 mins by absorbance based analysis; type: protein assay
[23] = Inhibition of alpha-glucosidase (unknown origin) using 4-nitrophenyl-[…]-D-glucopyranoside as substrate preincubated for 20 mins followed by substrate addition and measured after 1 hr by absorbance based analysis; design: species or system Homo sapiens
[24] = target: T1, Alpha-glucosidase; test: Competitive inhibition of Saccharomyces cerevisiae alpha-glucosidase using p-nitrophenyl glucopyranoside as substrate assessed as inhibition constant preincubated for 15 mins followed by substrate addition and measured after 20 mins by spectrophotometric analysis; type: protein assay
[25] = target: T1, Alpha-glucosidase; test: Inhibition of Saccharomyces cerevisiae alpha-glucosidase using p-nitrophenyl-alpha-D-glucopyranoside as substrate preincubated for 5 mins followed by substrate addition and measured after 30 mins by absorbance based microplate reader analysis; type: protein assay

**Q.** For O=C1CS/C(=N\N=C\c2ccc(OS(=O)(=O)c3ccccc3[N+](=O)[O-])cc2)N1, which IC50 [1] is on record?
**A.** 42.8 µM

**Q.** Which Ki [2] does the source give for N#CC1=C(N)Oc2c(c(=O)[nH]c3c2ccc2ccccc23)C1c1ccc(Br)cc1 (stereo not drawn) here?
**A.** 28 µM

**Q.** And the IC50 [3]?
**A.** 15.7 µM

**Q.** Which Ki [4] does the source give for N#CC1=C(N)Oc2c(c(=O)[nH]c3c2ccc2ccccc23)C1c1ccc(Cl)cc1 (stereo not drawn) here?
**A.** 11 µM

**Q.** What about the IC50 [3] of the same compound?
**A.** 10.3 µM

**Q.** With OC[C@H]1O[C@H](OCc2cn(C[C@H]3O[C@@H]4O[C@H]5[C@H](O)[C@@H](O)[C@@H](O[C@H]6[C@H](O)[C@@H](O)[C@@H](O[C@H]7[C@H](O)[C@@H](O)[C@@H](O[C@H]8[C@H](O)[C@@H](O)[C@@H](O[C@H]9[C@H](O)[C@@H](O)[C@@H](O[C@H]%10[C@H](O)[C@@H](O)[C@@H](O[C@H]%11[C@H](O)[C@@H](O)[C@@H](O[C@H]3[C@H](O)[C@H]4O)O[C@@H]%11Cn3cc(CO[C@H]4O[C@H](CO)[C@@H](O)[C@H](O)[C@@H]4O)nn3)O[C@@H]%10Cn3cc(CO[C@H]4O[C@H](CO)[C@@H](O)[C@H](O)[C@@H]4O)nn3)O[C@@H]9Cn3cc(CO[C@H]4O[C@H](CO)[C@@H](O)[C@H](O)[C@@H]4O)nn3)O[C@@H]8Cn3cc(CO[C@H]4O[C@H](CO)[C@@H](O)[C@H](O)[C@@H]4O)nn3)O[C@@H]7Cn3cc(CO[C@H]4O[C@H](CO)[C@@H](O)[C@H](O)[C@@H]4O)nn3)O[C@@H]6Cn3cc(CO[C@H]4O[C@H](CO)[C@@H](O)[C@H](O)[C@@H]4O)nn3)O[C@@H]5Cn3cc(CO[C@H]4O[C@H](CO)[C@@H](O)[C@H](O)[C@@H]4O)nn3)nn2)[C@@H](O)[C@@H](O)[C@@H]1O as the compound, how does the IC50 [5] read?
**A.** 32 µM

**Q.** For Cn1cnnc1SC(=O)c1ccc(-c2ccccc2Cl)o1, which Ki [6] is on record?
**A.** 5.1 µM

**Q.** What about the IC50 [7] of the same compound?
**A.** 2.2 µM

**Q.** For Oc1ccc(Br)cc1-c1nc2cc(Cl)ccc2s1, which IC50 [8] is on record?
**A.** 22.1 µM

**Q.** What about the Ki [9] of the same compound?
**A.** 16.03 µM

**Q.** For C(=N\Nc1nc(-c2ccc(-c3ccccc3)cc2)cs1)/c1cccc2ccccc12, which IC50 [10] is on record?
**A.** 6.2 µM

**Q.** Which IC50 [11] does the source give for Cc1ccc(NC(=O)Oc2ccc(-c3nc4ccccn4c3NC(C)(C)C)cc2)cc1 here?
**A.** 75.6 µM

**Q.** What about the Ki [12] of the same compound?
**A.** 71 µM

**Q.** With COc1c(C(=O)/C=C/c2ccc(Br)cc2)c(OC)c(C(=O)/C=C/c2ccc(Br)cc2)c(OC)c1C(=O)/C=C/c1ccc(Br)cc1 as the compound, how does the Ki [13] read?
**A.** 3.9 nM

**Q.** With N[C@H]1[C@H](O)[C@@H](O)[C@H](O)[C@@H](CO)[C@@H]1CCO as the compound, how does the Ki [14] read?
**A.** 6.3 µM

**Q.** What about the IC50 [15] of the same compound?
**A.** 5.8 µM

**Q.** For Cc1nn(-c2ccc(Nc3cccc(Cl)c3)nn2)c(C)c1[N+](=O)[O-], which Ratio IC50 [16] is on record?
**A.** 1.98

**Q.** What about the IC50 [17] of the same compound?
**A.** 19.3 µM

**Q.** What does the source list for O=C1CNC(=S)N1C(=O)c1cc([N+](=O)[O-])cc([N+](=O)[O-])c1?
**A.** Ki [18]: 156 µM; Ki [19]: 34 µM; IC50 [20]: 50 µM

**Q.** What does the source list for COc1ccc(-n2c(SCC(=O)N/N=C/c3ccc(O)cc3)nc3ccccc3c2=O)cc1?
**A.** IC50 [7]: 561 µM; Activity [21]: 43.07%

**Q.** With CC1=NN(c2ccc([N+](=O)[O-])cc2)C(=O)/C1=C/c1cn(-c2ccccc2)nc1-c1cc2cc(Br)ccc2oc1=O as the compound, how does the IC50 [22] read?
**A.** 2.1 µM

**Q.** Which IC50 [23] does the source give for Oc1ccccc1-c1cc(-c2ccc(C(F)(F)F)cc2)n(-c2ccccc2)n1 here?
**A.** 115 µM

**Q.** With O=C(Cn1cc(CNC(=O)c2c3ccccc3nc3ccccc23)nn1)Nc1cccc(Br)c1 as the compound, how does the Ki [24] read?
**A.** 78 µM

**Q.** What about the IC50 [3] of the same compound?
**A.** 80.3 µM

**Q.** Which IC50 [25] does the source give for COc1cccc(NC(=O)Cn2nc3c(c2C)N(C)Sc2ccccc2-3)c1 here?
**A.** 5.8 µM

Source: ChEMBL document CHEMBL5360534, “Synthetic α-glucosidase inhibitors as promising anti-diabetic agents: Recent developments and future challenges” (Eur J Med Chem, 2023)
